Data on 13 compounds can be found in patent publication US7732452B2, “Thiophene derivatives which are HM74A agonists” (Hoffmann-La Roche Inc., priority 2005, dated 2010).

Data set [1] deals with T1, HM74A (Homo sapiens, UniProt Q8TDS4).
T1 construct: expressed in transfected cells; pcDNA3.1 vectors; co-expressing chimeric G protein Gqi9
The data set can be described thus: Secondary fluorescent calcium indicator assay (FLIPR). Conditions: HEK-293 cells stably expressing HM74A and chimeric G protein Gqi9; % stimulation of maximal nicotinic acid response (100 μM). It counts as cell-based. On the procedure:
Secondary Fluorescent Calcium Indicator Assay (FLIPR)
HEK-293 cells were grown in tissue culture medium (DMEM/Nut mix F12 Medium with Glutamax I (Invitrogen), containing 10% FBS) at 37° C. in a 5% CO2 atmosphere. These cells were cultured in 6-well dishes at 3×10^5 cells/well and double transfected with DNA vectors (pcDNA3.1, Invitrogen) expressing either HM74A or HM74 and the chimeric G protein Gqi9. Two days after transfection the wells were combined and plated in 150 cm^2 flasks, in the presence of 50 μg/ml Hygromycin (Invitrogen) and 500 μg/ml Geneticin (Gibco). Fourteen days after plating, colonies were picked, expanded and analyzed for expression using a functional assay (FLIPR). Stable transfected HEK-293 cells expressing either HM74A or HM74 and the chimeric G protein Gqi9 were plated at 50,000 cells/well in black 96-well plates with clear bottom (Costar) and cultured to confluency overnight in growth media (DMEM/Nut mix F12 Medium with Glutamax I (Invitrogen), containing 10% FBS) at 37° C. in a humidified cell incubator containing 5% CO2. Growth media was aspirated and replaced with 100 μl of 1×FLIPR Calcium Assay Dye (Molecular Devices) in Hank's balanced salt solution (HBSS) containing 10 mM HEPES, and […] probenecid (Sigma), for 1 hour at 37° C. Cell plates were transferred to a FLIPR unit (Molecular Devices), and 50 μl of 3× compound dilution were added. Fluorescence emissions were measured and the effects of compounds were expressed as % stimulation of maximal nicotinic acid response (100 μM). Sigmoidal curves were fitted using the XLfit3 program (ID Business Solutions Ltd. UK) and EC50 values determined.

T1 sequence (Q8TDS4 whole entry): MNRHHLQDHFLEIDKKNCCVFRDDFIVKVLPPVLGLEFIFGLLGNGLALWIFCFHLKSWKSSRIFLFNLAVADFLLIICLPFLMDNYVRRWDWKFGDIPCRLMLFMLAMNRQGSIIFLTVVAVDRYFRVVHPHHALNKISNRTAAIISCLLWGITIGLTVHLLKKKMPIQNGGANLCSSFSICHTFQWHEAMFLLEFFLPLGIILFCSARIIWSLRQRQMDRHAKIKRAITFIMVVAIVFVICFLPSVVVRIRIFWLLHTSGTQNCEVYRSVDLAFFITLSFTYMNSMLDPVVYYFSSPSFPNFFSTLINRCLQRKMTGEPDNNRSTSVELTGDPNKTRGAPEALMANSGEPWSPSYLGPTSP

Usually EC50 stands for the concentration giving half of the maximal effect. For `O=C(COc1ccc(-c2ccc(F)cc2)cn1)Nc1cscc1C(=O)O` [Example 11, 4-{2-[5-(4-Fluoro-phenyl)-pyridin-2-yloxy]-acetylamino}-thiophene-3-carboxylic acid], the EC50 in data set [1] was 131 nM.

The term melting point denotes the temperature, or range, at which the solid turns liquid. In the case of `COc1cccc(-c2ccc(OCC(=O)Nc3cscc3C(=O)O)cc2)c1` [Example 7, 4-[2-(3′-Methoxy-biphenyl-4-yloxy)-acetylamino]-thiophene-3-carboxylic acid], the melting point fell in the range of 187 to 189 °C.

Compound `COc1ccccc1-c1ccc(OCC(=O)Nc2cscc2C(=O)O)nc1` [Example 10, 4-{2-[5-(2-Methoxy-phenyl)-pyridin-2-yloxy]-acetylamino}-thiophene-3-carboxylic acid] yielded a melting point of 194 to 197 °C.

`O=C(COc1ccc(-c2ccc(F)cc2)cc1)Nc1cscc1C(=O)O` [Example 1, 4-[2-(4′-Fluoro-biphenyl-4-yloxy)-acetylamino]-thiophene-3-carboxylic acid] had a melting point of 244 to 251 °C.

As for `CC(=O)c1cccc(-c2ccc(OCC(=O)Nc3cscc3C(=O)O)cc2)c1` [Example 8, 4-[2-(3′-Acetyl-biphenyl-4-yloxy)-acetylamino]-thiophene-3-carboxylic acid], the melting point lay within 212 to 214 °C.

As for `O=C(COc1ccc(Cl)c(Cl)c1)Nc1cscc1C(=O)O` [Example 18, 4-[2-(3,4-Dichloro-phenoxy)-acetylamino]-thiophene-3-carboxylic acid], the melting point lay within 258 to 264 °C.

The compound `O=C(COc1ccc(-c2ccccc2)cc1)Nc1cscc1C(=O)O` [Example 2, 4-[2-(Biphenyl-4-yloxy)-acetylamino]-thiophene-3-carboxylic acid] returned a melting point of 247 to 251 °C. Besides, the concentration for a half-maximal effect (EC50) in data set [1] was found to be 48.7 nM.

With `CC(C)(C)c1ccc(OCC(=O)Nc2cscc2C(=O)O)cc1` [Example 23, 4-[2-(4-tert-Butyl-phenoxy)-acetylamino]-thiophene-3-carboxylic acid], in data set [1], the EC50 was found to be 225 nM.

`O=C(COc1ccc(-c2ccccc2Cl)cn1)Nc1cscc1C(=O)O` [Example 19, 4-{2-[5-(2-Chloro-phenyl)-pyridin-2-yloxy]-acetylamino}-thiophene-3-carboxylic acid] returned a melting point of 218 to 223 °C.

For `Cc1ccccc1-c1ccc(OCC(=O)Nc2cscc2C(=O)O)cc1` [Example 5, 4-[2-(2′-Methyl-biphenyl-4-yloxy)-acetylamino]-thiophene-3-carboxylic acid], the melting point fell in the range of 207 to 209 °C.

Compound `CC(=O)Nc1cccc(-c2ccc(OCC(=O)Nc3cscc3C(=O)O)cc2)c1` [Example 6, 4-[2-(3′-Acetylamino-biphenyl-4-yloxy)-acetylamino]-thiophene-3-carboxylic acid] had a melting point of 250 to 253 °C.

`COc1ccccc1-c1ccc(OCC(=O)Nc2cscc2C(=O)O)cc1` [Example 3, 4-[2-(2′-Methoxy-biphenyl-4-yloxy)-acetylamino]-thiophene-3-carboxylic acid] gave a melting point of 196 to 199 °C.

Compound `O=C(COc1ccc(-c2cccc(Cl)c2)cc1)Nc1cscc1C(=O)O` [Example 4, 4-[2-(3′-Chloro-biphenyl-4-yloxy)-acetylamino]-thiophene-3-carboxylic acid] registered a melting point of 216 to 218 °C.
